Measurements reported in patent US20100029784A1, “NAPHTHOQUINONE COMPOSITIONS WITH ANTI-AGING, ANTI-INFLAMMATORY AND SKIN EVEN-TONING PROPERTIES” (priority 2008, published 2010).

Tested on: MelanoDerm in vitro skin model (MEL-300B melanoderms)
Assay: In vitro skin model test (MelanoDerm, MatTek), skin-lightening effect by digital image quantification
Format: cell-based
Conditions: for lightening / pixel density (untreated set at 1.00): 14 days, MEL-300B
Protocol: The skin-lightening effect was validated on the in vitro skin model, the MelanoDerm™ carried out by MatTek using MEL-300B melanoderms. This model is very similar in structure and function to the natural skin and has the cell types relevant in the epidermis including the melanocytes, which are responsible for the synthesis of the main pigment melanin. Further information can be found, for example, in http://www.mattek.com/pages/in_vitro_basics. The study was carried out over a period of 14 days at two concentrations of 2,3-dimethylnaphthalene-1,4-dione, 10 μM and 60 μM. 1% Kojic acid was the positive standard and untreated as negative control.
Digital image quantification was achieved by subtracting a standard background value from the pixel content of regions of identical size. The pixel content of untreated cells was set at 1.00. Treatment with topical 1% kojic acid as a positive control gave pixel density of 0.96, or 4% lightening. Treatment with 2,3-dimethylnaphthalene-1,4-dione gave pixel density of 0.66 or 34% lightening at a concentration of 10 μM and 0.38 or 62% lightening at a concentration of 60 μM.

[1] = topical 1% kojic acid, positive control

| SMILES | lightening [1] [%] | pixel density (untreated set at 1.00) [1] | effectiveness relative to the kojic acid positive standard (concentration of 10 μM vs 1% kojic acid) | lightening (concentration of 10 μM) [%] | pixel density (untreated set at 1.00) (concentration of 10 μM) | effectiveness relative to the kojic acid positive standard (concentration of 60 μM vs 1% kojic acid) | lightening (concentration of 60 μM) [%] | pixel density (untreated set at 1.00) (concentration of 60 μM) |
| --- | --- | --- | --- | --- | --- | --- | --- | --- |
| O=c1cc(CO)occ1O [kojic acid, Kojic acid, reference compound] | 4 | 0.96 |  |  |  |  |  |  |
| CC1=C(C)C(=O)c2ccccc2C1=O [2,3-dimethylnaphthalene-1,4-dione] |  |  | about ten times as effective | 34 | 0.66 | about fifteen times as effective | 62 | 0.38 |
